Experimental data: US8563548B2, “Methylene furanone derivatives and use of said derivatives as a photoprotecting or antioxidant or depigmentation agent in cosmetic or dermatological compositions” (Pierre Fabre Dermo-Cosmetique, priority 2008, dated 2013)
Entries after “also recorded” stand apart in the source; their conditions may differ.

Tests used:
[1] = Antioxidant capacity by trapping the superoxide anion (photochemiluminescence with luminol); format: biochemical; conditions: sample needed for activity equivalent to 1 μg Trolox; for μg of sample for 1 μg of Trolox: reference products; for ACL μg of sample for 1 μg of Trolox: methylene furanone samples
Procedure: The antioxidant capacity of 10 molecules was measured by trapping the superoxide anion: 5d, 9a, 5b, 5a, 5e, 4d, 5f, 5g, 5h, 5j.
The method consists in generating free radicals by a photochemical signal. Oxidation intensity is 1000 times higher than that obtained in normal conditions.
Thus, the superoxide radical (O2—) is generated by a photochemical reaction: L+hv(UV)+O2→L*O2→L^++O2—
Detection is done by chemiluminescence. It enables the evaluation of water-soluble and fat-soluble antioxidant molecules or extracts.
Part of the superoxide anions are quenched by antioxidants. The remaining free radicals are quantified by chemiluminescence. L^++O2^−→N2+AP*^2−→AP^2−+hv (luminescence)
The results are expressed respectively in equivalent quantity of vitamin C or Trolox (6-hydroxy-2,5,7,8-tetramethylchroman-2-carboxylic acid). Sensitivity is on the order of a nanomole.
The analysis of the results depends on two criteria: shape of the curve and numerical value given by the software.

[2] = UV absorption characteristics (photoprotecting capacity); format: physicochemical; conditions: for region of UV absorption / maximum absorption: UVA, UVB, long UVA (340-400 nm); for UVA/UVB ratio (R) / critical wavelength (λc): UV absorption spectrum
From the text: The methylene furanone derivatives of general formula (I) of the present invention were thus evaluated in order to determine their photoprotecting capacity by determination of their UV absorption characteristics: molar extinction coefficient ε, critical wavelength (λc) and UVA/UVB ratio.
By gathering all this information and by comparing the shape of the UV absorption spectra, these molecules can be classified in three categories: […]

[3] = Photostability under Suntest irradiation (10 MED); format: physicochemical; conditions: irradiated with 10 MED, UV spectra before and after irradiation; for Photostability in solution: in solution in ethanol; for Photostability powder: powder form
From the text: For this study it was decided to irradiate samples, in powder form or in solution in ethanol, with 10 MED (minimal erythema dose: minimum amount of solar radiation causing the appearance of sunburn). The evaluation of degradation is estimated by the shape of the UV absorption spectra before and after irradiation.
Evaluation of Stability of Methylene Furanone Derivatives Irradiated in Suntest.

Tyrosinase = Tyrosinase monophenol monooxygenase (MPMO) inhibition test; format: biochemical; set-up: concentration or dose not given beside the values; conditions: for a 50 quantity; substrate L-tyrosine, compared to maximum activity without inhibitor
Procedure: Tyrosinase is a limiting enzyme in melanogenesis. It belongs to the family of oxidoreductases. […] It is synthesised in melanocytes. It is activated during its migration towards keratinocytes via melanosomes. It transforms tyrosine into DOPA and then dopaquinone, which eventually leads to polymerization and pigment production.
The monophenol monooxygenase function is measured in this test. Tyrosinase activity (MPMO in the strict sense) is measured.
The substrate: L-tyrosine is transformed into L-DOPA. The enzymatic reaction is stopped at this stage. The DOPA produced is determined by an external calibration (0.005 mM to 0.1 mM). The final result is a percentage of inhibition compared to maximum activity without inhibitor or extract.

## O=C(O)CCCC[C@@H]1CCSS1 (racemic) [Lipoic acid, reference compound]
[1]
  μg of sample for 1 μg of Trolox: NEGATIVE

## O=C1C=C(c2ccccc2)/C(=C/c2ccccc2)O1 [4a, (Z)-4-Phenyl-5-(phenylmethylene)furan-2(5H)-one]
[2]
  region of UV absorption / maximum absorption: absorb in long UVA wavelengths

## O=C1C=C(c2ccsc2)/C(=C/c2ccsc2)O1 [4b, (Z)-4-(3-Thiophene)-5-(3-thiophenylmethylene)furan-2(5H)one]
[2]
  UVA/UVB ratio (R): 1.9
  region of UV absorption / maximum absorption: maximum is in UVB

## O=C1C=C(c2ccc3ccccc3c2)/C(=C/c2ccc3ccccc3c2)O1 [4c, (Z)-4-(2-naphthalene)-5-(2-naphthalenephenylmethylene)furan-2(5H)-one]
[2]; UV absorption
  molar extinction coefficient ε: 22,000 l.mol^−1.cm^−1
[2]
  UVA/UVB ratio (R): 3.2
  region of UV absorption / maximum absorption: maximum is in UVB

## COc1ccc(/C=C2\OC(=O)C=C2c2ccc(OC)c(OC)c2)cc1OC [4d]
[1]
  ACL μg of sample for 1 μg of Trolox: 50.2 µg
[3]
  Photostability in solution: moderately stable
  Photostability powder: stable

## O=C1C=C(c2ccccc2F)/C(=C/c2ccccc2F)O1 [4f, (Z)-4-(2-Fluorophenyl)-(Z)-5-(2-fluorophenylmethylene)furan-2(5H)-one]
[2]
  region of UV absorption / maximum absorption: absorb in long UVA wavelengths

## O=C1C=CC(=C(c2ccccc2)c2ccccc2)O1 [5a, 5-(Diphenylmethylene)furan-2(5H)-one]
[1]
  ACL μg of sample for 1 μg of Trolox: 43.0 µg
[2]
  critical wavelength (λc): 367 nm
[3]
  Photostability in solution: stable
  Photostability powder: stable

## O=C1C=CC(=C(c2ccsc2)c2ccsc2)O1 [5b, 5-(Dithiophene-3-ylmethylene)furan-2-(5H)-one]
[1]
  ACL μg of sample for 1 μg of Trolox: 28.0 µg
[3]
  Photostability in solution: stable
  Photostability powder: stable

## O=C1C=CC(=C(c2ccc3ccccc3c2)c2ccc3ccccc3c2)O1 [5c, 5-(Dinaphthalene-2-ylmethylene)furan-2-(5H)-one]
[2]
  region of UV absorption / maximum absorption: absorb in long UVA wavelengths

## COc1ccc(C(=C2C=CC(=O)O2)c2ccc(OC)c(OC)c2)cc1OC [5d, 5-(bis(3,4-Dimethoxyphenyl)methylene)furan-2-(5H)-one]
[1]
  ACL μg of sample for 1 μg of Trolox: 12.7 µg
[3]
  Photostability in solution: stable
  Photostability powder: completely unstable; also recorded: not stable

## CC(C)(C)OC(=O)Nc1ccc(C(=C2C=CC(=O)O2)c2ccc(NC(=O)OC(C)(C)C)cc2)cc1 [5e]
[1]
  ACL μg of sample for 1 μg of Trolox: 46.3 µg
[3]
  Photostability in solution: stable
  Photostability powder: stable

## O=C1C=CC(=C(c2ccccc2F)c2ccccc2F)O1 [5f, 5-bis((2-fluorophenyl)methylene)furan-2-(5H)-one]
[1]
  ACL μg of sample for 1 μg of Trolox: 88.3 µg
[3]
  Photostability in solution: stable
  Photostability powder: stable

## O=C1C=CC(=C(c2ccc(O)c(O)c2)c2ccc(O)c(O)c2)O1 [5g, 5-(bis(3,4-dihydroxyphenyl)methylene)furan-2-(5H)-one]
[1]
  ACL μg of sample for 1 μg of Trolox: 0.03 µg
Tyrosinase
  inhibition of MPMO enzyme activity: 65.93%

## COc1cc(C(=C2C=CC(=O)O2)c2cc(OC)c(OC)c(OC)c2)cc(OC)c1OC [5h, 5-(bis(3,4,5-trimethoxyphenyl)methylene)furan-2-(5H)-one]
[1]
  ACL μg of sample for 1 μg of Trolox: 30 µg

## O=C1C=CC(=C(c2cc(O)c(O)c(O)c2)c2cc(O)c(O)c(O)c2)O1 [5i, 5-(bis(3,4,5-Trihydroxyphenyl)methylene)furan-2-(5H)-one]
[1]
  ACL μg of sample for 1 μg of Trolox: 1.5 µg

## O=C1C=C(Br)/C(=C/c2ccccc2)O1 [6a, (Z)-4-Bromo-5-(phenylmethylene)furan-2-(5H)-one]
[2]
  region of UV absorption / maximum absorption: absorb in long UVA wavelengths

## O=C1C=C(Br)/C(=C/c2ccsc2)O1 [6b, (Z)-4-Bromo-5-(thiophene-3-ylmethylene)furan-2-(5H)-one]
[2]
  critical wavelength (λc): 355 nm

## O=C1C=C(c2ccsc2)/C(=C/c2ccccc2)O1 [8a, (Z)-5-(Phenylmethylene)-4-(thiophene-3-yl)furan-2-(5H)-one]
[2]
  region of UV absorption / maximum absorption: absorb in long UVA wavelengths

## O=C1C=C(c2ccccc2)/C(=C/c2ccsc2)O1 [8b, 4-Phenyl-(Z)-5-(thiophene-3-ylmethylene)furan-2-(5H)-one]
[2]
  region of UV absorption / maximum absorption: absorb in long UVA wavelengths

## O=C1C=C/C(=C(\c2ccccc2)c2ccsc2)O1 [9a, (Z)-5-(phenylthiophene-3-ylmethylene)furan-2-(5H)-one]
[1]
  ACL μg of sample for 1 μg of Trolox: 21.6 µg
[3]
  Photostability in solution: stable
  Photostability powder: stable

## COc1ccc(O)c(C(C)(C)C)c1 [Butylhydroxyanisole, reference compound]
[1]
  μg of sample for 1 μg of Trolox: 2.650 µg

## N[C@@H](CS)C(=O)O [Cysteine, reference compound]
[1]
  μg of sample for 1 μg of Trolox: 698 µg

## COC1=C(OC)C(=O)C(CCCCCCCCCCO)=C(C)C1=O [Idebenone, reference compound]
[1]
  μg of sample for 1 μg of Trolox: 10.10 µg

## Cc1c(C)c2c(c(C)c1O)CCC(C)(C(=O)O)O2 (stereo not drawn) [Trolox, 6-hydroxy-2,5,7,8-tetramethylchroman-2-carboxylic acid, reference compound]
[1]
  μg of sample for 1 μg of Trolox: 1.067 µg

## O=C1O[C@H]([C@@H](O)CO)C(O)=C1O [Vitamin C, ascorbic acid, reference compound]
[1]
  μg of sample for 1 μg of Trolox: 0.451 µg

## CC(=O)Oc1c(C)c(C)c2c(c1C)CCC(C)(CCC[C@H](C)CCC[C@H](C)CCCC(C)C)O2 (stereo partly drawn) [α-tocopherol-acetate, reference compound]
[1]
  μg of sample for 1 μg of Trolox: 140 µg
